Source: US20250313548A1 (Actio Biosciences, Inc., priority 2023, published 2025)
pIC50: −log10 of the molar value. Structures can show the parent of a compound that is named as a salt.

These compounds were tested against human, KCNT1 (Homo sapiens (Human), UniProt Q5JUK3) (assay: FLIPR Tl/K Flux Assay). Conditions: HEK293 cells stably expressing human KCNT1; Tl+ flux stimulated with EC80 of agonist Loxapine.
Assay type: cell-based
Procedure, shortened: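 Inhibition values come from a Hill-equation fit of % inhibition versus log concentration, using normalized fluorescence (Fmax/Fmin) over a 160 s read. The read followed stimulation with Tl+ plus EC80 agonist loxapine after 30 min compound pre-incubation at 25 °C. Cells were KCNT1-expressing HEK293, dye-loaded 1 h in pH 7.4 HEPES/HBSS with 5 mM probenecid.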

Sequence of human, KCNT1 (Q5JUK3 whole entry): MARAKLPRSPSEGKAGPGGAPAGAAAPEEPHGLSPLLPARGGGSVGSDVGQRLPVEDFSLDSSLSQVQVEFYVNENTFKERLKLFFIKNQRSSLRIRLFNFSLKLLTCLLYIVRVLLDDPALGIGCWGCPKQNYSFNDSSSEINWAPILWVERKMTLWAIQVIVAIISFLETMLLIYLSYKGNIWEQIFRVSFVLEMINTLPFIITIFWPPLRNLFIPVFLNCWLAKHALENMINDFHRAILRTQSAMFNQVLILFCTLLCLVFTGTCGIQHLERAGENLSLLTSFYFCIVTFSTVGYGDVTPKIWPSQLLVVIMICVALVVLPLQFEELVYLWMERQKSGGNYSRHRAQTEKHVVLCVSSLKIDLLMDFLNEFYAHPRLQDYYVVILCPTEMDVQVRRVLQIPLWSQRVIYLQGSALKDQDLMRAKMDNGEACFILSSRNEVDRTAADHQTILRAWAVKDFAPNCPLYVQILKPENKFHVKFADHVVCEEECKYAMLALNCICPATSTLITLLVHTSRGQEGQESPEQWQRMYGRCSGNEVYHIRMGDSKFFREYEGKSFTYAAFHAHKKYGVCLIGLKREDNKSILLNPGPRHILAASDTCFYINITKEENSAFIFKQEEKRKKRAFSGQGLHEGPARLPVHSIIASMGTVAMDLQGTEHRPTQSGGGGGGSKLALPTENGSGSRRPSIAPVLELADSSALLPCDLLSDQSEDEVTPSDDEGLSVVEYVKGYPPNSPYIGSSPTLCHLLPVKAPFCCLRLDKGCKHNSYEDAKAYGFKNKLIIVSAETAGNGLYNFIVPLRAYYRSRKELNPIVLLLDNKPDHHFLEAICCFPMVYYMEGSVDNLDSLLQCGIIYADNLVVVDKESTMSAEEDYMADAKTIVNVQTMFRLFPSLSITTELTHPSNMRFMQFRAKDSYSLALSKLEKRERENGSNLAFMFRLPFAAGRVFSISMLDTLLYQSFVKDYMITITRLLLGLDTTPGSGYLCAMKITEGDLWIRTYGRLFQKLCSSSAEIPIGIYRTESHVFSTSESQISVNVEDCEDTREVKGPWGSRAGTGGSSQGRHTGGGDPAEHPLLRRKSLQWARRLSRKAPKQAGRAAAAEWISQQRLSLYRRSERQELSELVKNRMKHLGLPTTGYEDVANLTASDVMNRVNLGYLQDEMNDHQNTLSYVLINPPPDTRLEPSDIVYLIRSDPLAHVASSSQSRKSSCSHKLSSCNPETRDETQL

| Compound | pIC50 |
| --- | --- |
| O=C(N[C@@H]1CCCn2nc(-c3cc(C(F)(F)F)ncc3F)nc21)c1cncc(C(F)(F)F)n1 [Compound I-502b] | < 6.00 |
| O=C(N[C@H]1CCCc2nc(-c3ccnc(C(F)(F)F)c3)oc21)c1cccc(OC(F)(F)F)c1 [Compound I-187a, (S)-3-(Trifluoromethoxy)-N-(2-(2-(trifluoromethyl)pyridin-4-yl)-4,5,6,7-tetrahydrobenzo[d]oxazol-7-yl)benzamide] | > 6.60 |
| (S)—N-(2-(2-Cyclopropyl-5-fluoropyridin-4-yl)-5,6-dihydro-4H-pyrrolo[1,2-b]pyrazol-4-yl)-1-methyl-3-(trifluoromethyl)-1H-pyrazole-5-carboxamide [Compound I-154a] | > 6.60 |
| COc1cc(-c2cc3n(n2)CC[C@H]3NC(=O)c2cc(C(F)(F)F)nn2C)c(C(F)(F)F)cn1 [Compound I-172b] | < 6.00 |
| Cn1nc(C(F)(F)F)cc1C(=O)N[C@H]1CCc2nn(-c3ccnc(C(F)(F)F)c3)cc21 [Compound I-1a, (S)-1-Methyl-3-(trifluoromethyl)-N-(2-(2-(trifluoromethyl)pyridin-4-yl)-2,4,5,6-tetrahydrocyclopenta[c]pyrazol-4-yl)-1H-pyrazole-5-carboxamide] | > 6.60 |
| CC(C)(C)CC(=O)N[C@@H]1CCc2nn(-c3ccnc(C(F)(F)F)c3)cc21 [Compound I-103b] | < 6.00 |
| O=C(N[C@H]1CCn2nc(-c3cc(C(F)(F)F)ncc3F)cc21)C12CC(CF)(C1)C2 [Compound I-540a, (S)-N-(2-(5-Fluoro-2-(trifluoromethyl)pyridin-4-yl)-5,6-dihydro-4H-pyrrolo[1,2-b]pyrazol-4-yl)-3-(fluoromethyl)bicyclo[1.1.1]pentane-1-carboxamide] | > 6.60 |
| O=C(N[C@H]1CCCc2oc(-c3ccnc(C4CC4)c3)nc21)c1cc(C(F)(F)F)n(C(F)F)n1 [Compound I-130a, (S)-N-(2-(2-Cyclopropylpyridin-4-yl)-4,5,6,7-tetrahydrobenzo[d]oxazol-4-yl)-1-(difluoromethyl)-5-(trifluoromethyl)-1H-pyrazole-3-carboxamide] | > 6.60 |
| O=C(N[C@H]1CCn2nc(-c3cc(C(F)(F)F)ncc3F)cc21)C12CC(C(F)F)(C1)C2 [Compound I-527a, (S)-3-(Difluoromethyl)-N-(2-(5-fluoro-2-(trifluoromethyl)pyridin-4-yl)-5,6-dihydro-4H-pyrrolo[1,2-b]pyrazol-4-yl)bicyclo[1.1.1]pentane-1-carboxamide] | > 6.60 |
| CCOc1cc(C(=O)N[C@H]2CCn3nc(-c4cc(C(F)(F)F)ncc4F)cc32)ccn1 [Compound I-318a, (S)-2-Ethoxy-N-(2-(5-fluoro-2-(trifluoromethyl)pyridin-4-yl)-5,6-dihydro-4H-pyrrolo[1,2-b]pyrazol-4-yl)isonicotinamide] | > 6.60 |
| CS(=O)(=O)c1ccc(C(=O)N[C@H]2CCc3nn(-c4ccnc(C(F)(F)F)c4)cc32)cc1 [Compound I-96a] | < 6.00 |
| COc1cc(-c2nc3c(o2)[C@@H](NC(=O)c2ccnc(OC(F)(F)F)c2)CCC3)c(F)cn1 [Compound I-175a] | > 6.60 |
| Cc1cc(Cl)cc(C(=O)N[C@H]2CCc3nn(-c4ccnc(C(F)(F)F)c4)cc32)c1 [Compound I-98a] | > 6.60 |
| O=C(N[C@H]1CCCc2nc(-c3ccnc(C(F)(F)F)c3)oc21)c1ccnc(OC(F)(F)F)c1 [Compound I-186a, (S)-2-(Trifluoromethoxy)-N-(2-(2-(trifluoromethyl)pyridin-4-yl)-4,5,6,7-tetrahydrobenzo[d]oxazol-7-yl)isonicotinamide] | > 6.60 |
| O=C(NC1CCCc2nn(-c3ccnc(C(F)(F)F)c3)cc21)c1ccccc1 (racemic) [Compound I-13, (rac)-N-(2-(2-(Trifluoromethyl)pyridin-4-yl)-4,5,6,7-tetrahydro-2H-indazol-4-yl)benzamide] | > 6.60 |
| Cn1nc(C(F)(F)F)cc1C(=O)NC1CCc2nn(-c3ccnc(C(F)(F)F)c3)cc2C1 (racemic) [Compound I-63, (rac)-1-Methyl-3-(trifluoromethyl)-N-(2-(2-(trifluoromethyl)pyridin-4-yl)-4,5,6,7-tetrahydro-2H-indazol-5-yl)-1H-pyrazole-5-carboxamide] | > 6.60 |
| COc1cc(-c2nc3c(o2)CCC[C@H]3NC(=O)c2cncc(C(F)(F)F)n2)ccn1 [Compound I-471b] | 6.00 to 6.30 |
| O=C(NC1CCCc2nn(-c3ccnc(C(F)(F)F)c3)cc21)c1ccccn1 (racemic) [Compound I-31, (rac)-N-(2-(2-(Trifluoromethyl)pyridin-4-yl)-4,5,6,7-tetrahydro-2H-indazol-4-yl)picolinamide] | < 6.00 |
| Cn1nc(C(F)(F)F)cc1C(=O)N[C@@H]1CCc2nn(-c3ccnc(C(F)(F)F)c3)cc21 [Compound I-1b, (R)-1-Methyl-3-(trifluoromethyl)-N-(2-(2-(trifluoromethyl)pyridin-4-yl)-2,4,5,6-tetrahydrocyclopenta[c]pyrazol-4-yl)-1H-pyrazole-5-carboxamide] | < 6.00 |
| N#Cc1cccc(C(=O)N[C@H]2CCCCn3nc(-c4ccnc(C5CC5)c4)cc32)c1 [Compound I-457a] | > 6.60 |
| O=C(N[C@H]1CCCc2nc(-c3ccnc(C4CC4)c3)oc21)c1cccc(C(F)(F)F)c1 [Compound I-171a, (S)-N-(2-(2-Cyclopropylpyridin-4-yl)-4,5,6,7-tetrahydrobenzo[d]oxazol-7-yl)-3-(trifluoromethyl)benzamide] | > 6.60 |
| COc1cc(-c2cc3n(n2)CC[C@H]3NC(=O)c2cc(C(F)(F)F)nn2C)ccn1 [Compound I-427b] | < 6.00 |
| Cc1c(C(F)(F)F)nn(C)c1C(=O)N[C@H]1CCc2nn(-c3ccnc(C(F)(F)F)c3)cc21 [Compound I-386a] | < 6.00 |
| Cn1nc(C(F)(F)F)cc1C(=O)N[C@H]1CCc2nn(-c3ccnc(C4CCC4)c3)cc21 [Compound I-72a] | > 6.60 |
| COc1cc(C(=O)N[C@H]2CCCc3oc(-c4ccnc(C(F)(F)F)c4)nc32)ccn1 [Compound I-299a] | > 6.60 |
| COc1cc(-c2cc3n(n2)CCCC[C@@H]3NC(=O)c2cccc(C#N)c2)ccn1 [Compound I-456a] | > 6.60 |

The next lines start with the values.

| pIC50 | Compound |
| --- | --- |
| > 6.60 | O=C(N[C@H]1CCCn2nc(-c3ccnc(C4CC4)c3)cc21)c1ccnc(C(F)(F)F)c1 [Compound I-496a, (S)-N-(2-(2-Cyclopropylpyridin-4-yl)-4,5,6,7-tetrahydropyrazolo[1,5-a]pyridin-4-yl)-2-(trifluoromethyl)isonicotinamide] |
| > 6.60 | N#Cc1cccc(C(=O)N[C@H]2CCCn3nc(-c4ccnc(C(F)(F)F)c4)cc32)c1 [Compound I-128a, (S)-3-Cyano-N-(2-(2-(trifluoromethyl)pyridin-4-yl)-4,5,6,7-tetrahydropyrazolo[1,5-a]pyridin-4-yl)benzamide] |
| > 6.60 | Cc1cc(C#N)cc(C(=O)N[C@H]2CCCn3nc(-c4ccnc(C5CC5)c4)cc32)c1 [Compound I-281a, (S)-3-Cyano-N-(2-(2-cyclopropylpyridin-4-yl)-4,5,6,7-tetrahydropyrazolo[1,5-a]pyridin-4-yl)-5-methylbenzamide TFA salt] |
| 6.30 to 6.60 | Cc1nc(C(F)(F)F)c(C(=O)N[C@H]2CCCn3nc(-c4ccnc(C(F)(F)F)c4)cc32)s1 [Compound I-406a] |
| > 6.60 | O=C(N[C@H]1CCn2nc(-c3ccnc(C(F)(F)F)c3)cc21)c1cccc(C(F)(F)F)c1 [Compound I-289a, (S)-3-(Trifluoromethyl)-N-(2-(2-(trifluoromethyl)pyridin-4-yl)-5,6-dihydro-4H-pyrrolo[1,2-b]pyrazol-4-yl)benzamide] |
| > 6.60 | Cc1cc(C(=O)N[C@H]2CCCn3nc(-c4ccnc(C(F)(F)F)c4)cc32)cc(C)n1 [Compound I-414a] |
| < 6.00 | O=C(N[C@H]1CCCn2nc(-c3ccnc(C(F)(F)F)c3)cc21)c1cc2n(n1)CCO2 [Compound I-436a] |
| > 6.60 | CC(C)c1nc(C(=O)N[C@H]2CCCn3nc(-c4ccnc(C(F)(F)F)c4)cc32)co1 [Compound I-441a] |
| > 6.60 | O=C(N[C@H]1CCCn2nc(-c3ccnc(C(F)(F)F)c3)cc21)c1cc(Cl)cc(C(F)(F)F)c1 [Compound I-352a] |
| > 6.60 | CCOc1cc(F)cc(C(=O)N[C@H]2CCn3nc(-c4ccnc(C(F)(F)F)c4)cc32)c1 [Compound I-568a, (S)-3-Ethoxy-5-fluoro-N-(2-(2-(trifluoromethyl)pyridin-4-yl)-5,6-dihydro-4H-pyrrolo[1,2-b]pyrazol-4-yl)benzamide] |
| > 6.60 | O=C(N[C@H]1CCCn2nc(-c3ccnc(C(F)(F)F)c3)cc21)c1cccc(F)c1F [Compound I-405a] |
| < 6.00 | Cn1nc(C(F)(F)F)cc1C(=O)N[C@@H]1CCCn2nc(-c3ccnc(C(F)(F)F)c3)cc21 [Compound I-42b, (R)-1-Methyl-3-(trifluoromethyl)-N-(2-(2-(trifluoromethyl)pyridin-4-yl)-4,5,6,7-tetrahydropyrazolo[1,5-a]pyridin-4-yl)-1H-pyrazole-5-carboxamide] |
| > 6.60 | O=C(N[C@H]1CCCn2nc(-c3ccnc(C(F)(F)F)c3)cc21)c1cncc(C(F)(F)F)n1 [Compound I-437a] |
| 6.00 to 6.30 | Cn1nc(C(F)(F)F)cc1C(=O)N[C@H]1CCCn2nc(-c3cnc(C(F)(F)F)o3)cc21 [Compound I-317a, (S)-1-Methyl-3-(trifluoromethyl)-N-(2-(2-(trifluoromethyl)oxazol-5-yl)-4,5,6,7-tetrahydropyrazolo[1,5-a]pyridin-4-yl)-1H-pyrazole-5-carboxamide] |
| > 6.60 | Cn1nc(C(F)(F)F)nc1C(=O)N[C@H]1CCCn2nc(-c3cc(C(F)(F)F)ncc3F)cc21 [Compound I-203a, (S)-N-(2-(5-Fluoro-2-(trifluoromethyl)pyridin-4-yl)-4,5,6,7-tetrahydropyrazolo[1,5-a]pyridin-4-yl)-1-methyl-3-(trifluoromethyl)-1H-1,2,4-triazole-5-carboxamide] |
| < 6.00 | O=C(N[C@H]1CCCc2cnc(-c3ccnc(C(F)(F)F)c3)cc21)c1cncc(C(F)(F)F)n1 (single isomer, unassigned) [I-270*] |
